Measurements published in patent US7718668B2, “Salts of 6-heterocycle substituted hexahydrophenanthridine derivatives” (Nycomed GmbH, priority 2005, dated 2010).
Counter-ions that a name gives are not always drawn.

melting point [°C] | Structure (SMILES)
170 | CCOc1cc2c(cc1OC)C(c1ccc(-n3cccn3)nc1)=N[C@@H]1CC[C@@H](O)C[C@H]21 (as salt: fumarate) [compound 3, (2R,4aR,10bR)-9-Ethoxy-8-methoxy-6-(6-pyrazol-1-yl-pyridin-3-yl)-1,2,3,4,4a, 10b-hexahydro-phenanthridin-2-ol]
156 | CCOc1cc2c(cc1OC)C(c1ccc(=O)n(C)c1)=N[C@@H]1CC[C@@H](O)C[C@H]21 (as salt: fumarate) [compound 9, 5-((2R,4aR,10bR)-9-Ethoxy-2-hydroxy-8-methoxy-1,2,3,4,4a, 10b-hexahydro-phenanthridin-6-yl)-1-methyl-1H-pyridin-2-one]
173 | CCOc1cc2c(cc1OC)C(c1ccc(OC)nc1)=N[C@@H]1CC[C@@H](O)C[C@H]21 (as salt: fumarate) [compound 10, (2R,4aR,10bR)-9-Ethoxy-8-methoxy-6-(6-methoxy-pyridin-3-yl)-1,2,3,4,4a, 10b-hexahydro-phenanthridin-2-ol]
123 | CCOc1cc2c(cc1OC)C(c1cnc(N(C)C)nc1OC)=N[C@@H]1CC[C@@H](O)C[C@H]21 (as salt: fumarate) [compound 11, (2R,4aR,10bR)-6-(2-Dimethylamino-4-methoxy-pyrimidin-5-yl)-9-ethoxy-8-methoxy-1,2,3,4,4a, 10b-hexahydro-phenanthridin-2-ol]
194 | CCOc1cc2c(cc1OC)C(c1cnc(OC)cc1OC)=N[C@@H]1CC[C@@H](O)C[C@H]21 (as salt: fumarate) [compound 12, (2R,4aR,10bR)-6-(4,6-Dimethoxy-pyridin-3-yl)-9-ethoxy-8-methoxy-1,2,3,4,4a, 10b-hexahydro-phenanthridin-2-ol]
210 | CCOc1cc2c(cc1OC)C(c1cnc(N(C)C)nc1)=N[C@@H]1CC[C@@H](O)C[C@H]21 (as salt: fumarate) [compound 13, (2R,4aR,10bR)-6-(2-Dimethylamino-pyrimidin-5-yl)-9-ethoxy-8-methoxy-1,2,3,4,4a, 10b-hexahydro-phenanthridin-2-ol]
163 | CCOc1cc2c(cc1OC)C(c1ccc(OC)nc1OC)=N[C@@H]1CC[C@@H](O)C[C@H]21 (as salt: hydrobromid) [compound 8, (2R,4aR,10bR)-6-(2,6-Dimethoxy-pyridin-3-yl)-9-ethoxy-8-methoxy-1,2,3,4,4a, 10b-hexahydro-phenanthridin-2-ol]
164 | CCOc1cc2c(cc1OC)C(c1ccc(OC)nc1OC)=N[C@@H]1CC[C@@H](O)C[C@H]21 (as salt: hydrochloride) [compound 8, (2R,4aR,10bR)-6-(2,6-Dimethoxy-pyridin-3-yl)-9-ethoxy-8-methoxy-1,2,3,4,4a, 10b-hexahydro-phenanthridin-2-ol]
193 | CCOc1cc2c(cc1OC)C(c1ccc(OC)nc1OC)=N[C@@H]1CC[C@@H](O)C[C@H]21 (as salt: mesylate) [compound 8, (2R,4aR,10bR)-6-(2,6-Dimethoxy-pyridin-3-yl)-9-ethoxy-8-methoxy-1,2,3,4,4a, 10b-hexahydro-phenanthridin-2-ol]
205 | CCOc1cc2c(cc1OC)C(c1ccc(=O)n(C)c1)=N[C@@H]1CC[C@@H](O)C[C@H]21 (as salt: tartrate) [compound 9, 5-((2R,4aR,10bR)-9-Ethoxy-2-hydroxy-8-methoxy-1,2,3,4,4a, 10b-hexahydro-phenanthridin-6-yl)-1-methyl-1H-pyridin-2-one]
249 | CCOc1cc2c(cc1OC)C(c1cnc(N(C)C)nc1OC)=N[C@@H]1CC[C@@H](O)C[C@H]21 (as salt: tartrate) [compound 11, (2R,4aR,10bR)-6-(2-Dimethylamino-4-methoxy-pyrimidin-5-yl)-9-ethoxy-8-methoxy-1,2,3,4,4a, 10b-hexahydro-phenanthridin-2-ol]
206 | CCOc1cc2c(cc1OC)C(c1cnc(N(C)C)nc1)=N[C@@H]1CC[C@@H](O)C[C@H]21 (as salt: tartrate) [compound 13, (2R,4aR,10bR)-6-(2-Dimethylamino-pyrimidin-5-yl)-9-ethoxy-8-methoxy-1,2,3,4,4a, 10b-hexahydro-phenanthridin-2-ol]
218 | CCOc1cc2c(cc1OC)C(c1ccc(OC)nc1OC)=N[C@@H]1CC[C@@H](O)C[C@H]21 (as salt: tosylate) [compound 8, (2R,4aR,10bR)-6-(2,6-Dimethoxy-pyridin-3-yl)-9-ethoxy-8-methoxy-1,2,3,4,4a, 10b-hexahydro-phenanthridin-2-ol]
124 | CCOc1cc2c(cc1OC)C(c1cnc(OC)nc1)=N[C@@H]1CC[C@@H](O)C[C@H]21 [compound 4, (2R,4aR,10bR)-9-Ethoxy-8-methoxy-6-(2-methoxy-pyrimidin-5-yl)-1,2,3,4,4a, 10b-hexahydro-phenanthridin-2-ol]
147 | CCOc1cc2c(cc1OC)C(c1ccc(=O)n(C)c1)=N[C@@H]1CC[C@@H](O)C[C@H]21 [compound 9, 5-((2R,4aR,10bR)-9-Ethoxy-2-hydroxy-8-methoxy-1,2,3,4,4a, 10b-hexahydro-phenanthridin-6-yl)-1-methyl-1H-pyridin-2-one]
124 | CCOc1cc2c(cc1OC)C(c1cnc(N(C)C)nc1OC)=N[C@@H]1CC[C@@H](O)C[C@H]21 [compound 11, (2R,4aR,10bR)-6-(2-Dimethylamino-4-methoxy-pyrimidin-5-yl)-9-ethoxy-8-methoxy-1,2,3,4,4a, 10b-hexahydro-phenanthridin-2-ol]
112 | CCOc1cc2c(cc1OC)C(c1cnc(N(C)C)nc1)=N[C@@H]1CC[C@@H](O)C[C@H]21 [compound 13, (2R,4aR,10bR)-6-(2-Dimethylamino-pyrimidin-5-yl)-9-ethoxy-8-methoxy-1,2,3,4,4a, 10b-hexahydro-phenanthridin-2-ol]
